Reference: article PMC11475369, “Exploring the Potential of Synthetic Cannabinoids: Modulation of Biological Activity of Normal and Cancerous Human Colon Epithelial Cells” (Cells, 2024)
Converted amounts (≈) assume the structure as drawn. “And” between values parts separate entries of the source, which are not always exact repeats. Equal values may be shown once.

How the values were obtained:
[1] = tested on: HT29 cells; test: Nitric oxide (NOx) release in HT29 culture, Griess method; type: cell-based, human; conditions: HT29 cancer cells, 0–200 μg/mL, 24 h
Procedure: In this spectrophotometric method, the stable end products (nitrate and nitrite) were analyzed in the normal and tumor culture supernatants after 24 h of incubation of the cells with the cannabinoids in the concentration range of 0–200 μg/mL. The Griess reaction was applied. This method involves a 2-step reaction, whose product is a red-pink azo dye. The amount of this dye is directly proportional to the amount of NO. The cells were cultured for 24 h in 24-well plates (1 mL/well, density 1 × 10^5 cells/mL); next, after withdrawing the culture fluid, the tested cannabinoids were added to the wells at a volume of 1 mL/well and the incubation was carried out for another 24 h. After the incubation, the culture media were collected and frozen at −80 °C for no longer than 1 month. For calibration and quantitative analysis, the standard curve was prepared using 0.5–25 μM sodium nitrite (NaNO2). Thawed and centrifuged (5000 rpm/5 min.) supernatant samples and the standard were poured into a 96-well flat-bottomed plate at 100 µL/well. Each sample was analyzed in triplicate. […] Finally, the absorbance of the samples was spectrophotometrically read at 570 nm using an EL800 Universal Microplate Reader (BioTek Instruments, Winooski, VT, USA).

[2] = tested on: HT29 cells; test: Flow cytometry (PI) cell cycle analysis of HT29 cells; type: cell-based, human; conditions: HT29, 25 μg/mL, 24 h
Procedure: (§1) In the flow cytometric study, we assessed the impact of the cannabinoids at a concentration of 25 μg/mL on the distribution of cell cycle phases in the normal and cancer cells after 24 h incubation. Both adhered, and non-adsorbed (floating) cells were used to perform the analyses. They were collected after 24 h of incubation with the tested cannabinoids and centrifuged (3000 rpm/5 min.). Next, the cell pellet was rinsed and suspended in PBS w/o Ca^2+ and Mg^2+ ions and centrifuged again (3000 rpm/5 min.). The cell pellet was suspended and fixed in 70% ethanol (1 mL). Untreated cells served as a control. The cells were stored at −20 °C for 1 week. After that time, in accordance with the manufacturer protocol, the cells were subjected to the PI staining procedure (PI/RNase Staining Buffer, BD PharmingenTM, BD Biosciences, San Jose, CA, USA). Briefly, 1 mL of PBS w/o Ca^2+ and Mg^2+ ions was added to 1 mL of ethanol and incubated with gentle stirring for 5 min. at room temperature. Next, the cells were centrifuged (3000 rpm/5 min.) and suspended in PBS w/o Ca^2+ and Mg^2+ ions with gentle stirring for 5 min. at room temperature. The cells were centrifuged once again (3000 rpm/5 min.) and the cell pellet was suspended in 500 μL of PI/RNase Staining Buffer. The incubation was carried out for 15 min. at room temperature. Finally, the intensity of the PI fluorescence was measured using FACS Calibur (BD Pharmingen^TM). The obtained data were analyzed using Cell Quest Pro Version 6.0. for the Macintosh operating system (BD Pharmingen^TM). The percentage of cells in the appropriate phases of the cycle was calculated based on all analyzed gated cells. A total of 10,000 events were measured per sample.

[3] = tested on: CCD 841 CoTr cells; test: Flow cytometry (PI) cell cycle analysis of CCD 841 CoTr cells; type: cell-based, human; conditions: 25 μg/mL, 24 h
Procedure: as §1

[4] = Ferric-reducing antioxidant power assay (FRAP)
Procedure: The antioxidant activity in the FRAP method determines the ability of the analyzed compounds to reduce iron ions. This allowed for the direct determination of the reducing capacity of the tested cannabinoids. The principle of the method was based on measuring the reduction in the tPtZ compound (iron-2,4,6-tripyridyl-S-[…] complex) under the influence of the cannabinoids. The following concentrations of the cannabinoids were prepared: 25, 100, and 200 μg/mL in Milli-Q water. […] The procedure was carried out as follows: each compound, at a concentration of 1 mL, was mixed with 1 mL of 0.2 M sodium phosphate buffer (pH 6.6) and 1 mL of 1% potassium ferricyanide. The mixture was vortexed and incubated for 30 min. at 37 °C. After the incubation, 1 mL of 10% trichloroacetic acid (w/v) was added to each sample, and the preparations were centrifuged at 1000 g for 5 min. Next, an equal volume of Milli-Q water and the upper layer of the samples (1 mL + 1 mL) were mixed with 100 μL of 0.1% ferric chloride and subjected to spectrophotometric reading at 700 nm using an EL800 Universal Microplate Reader (BioTek Instruments, Winooski, VT, USA). The higher the absorbance, the higher the iron ion-reducing activity of the tested cannabinoids is.

[5] = tested on: HT29 cells; test: Neutral Red (NR) uptake assay, viability of HT29 cells; type: cell-based; conditions: Homo sapiens, HT-29; HT29 colon tumor cells, 24 h incubation
Procedure: The HT29 cell line (ATCC no. HTB-38) (human colon adenocarcinoma) was used in the present study. Cells were cultivated in RPMI 1640 culture medium with 10% fetal calf serum (FCS) (GibcoTM, Paisley, UK), supplemented with antibiotics (100 U/mL penicillin and 100 μg/mL streptomycin) (Sigma, St. Louis, MO, USA). The cell culture was performed in standard conditions, i.e., at 37 °C in a humidified atmosphere with 5% CO2. The CCD 841 CoTr cell line (ATCC no. CRL-1807) (human normal colon epithelium) was cultivated in RPMI 1640 +DMEM (1:1) medium (Sigma, St. Louis, MO, USA) with 10% FCS and the addition of antibiotics. The culture was carried out at 34 °C in a 5% CO2/95% air atmosphere.
After seeding (1 × 10^5 cells/mL) in a 96-well plate, the cells were incubated for 24 h. Thereafter, the tested compounds (100 μL) at a concentration range of 0–200 μg/mL in the culture medium were added to the wells (100 μL). The incubation lasted for 24 h. After that time, the culture medium was removed and a 0.4% Neutral Red solution in the culture medium was added to each well. The incubation was continued for another 3 h. After the incubation, the medium with the NR dye was discarded, and 4% paraformaldehyde in 1% CaCl2 was added for cell fixation (200 μL) and incubated for 3 min. Intracellular dye deposits were solubilized using 1% […] in a 50% ethanol solution (100 μL). The plates were then gently shaken (20 min.) at room temperature to dissolve and release the dye from the cells. Finally, spectrophotometric measurement was performed at 540 nm using an EL800 Universal Microplate Reader (BioTek Instruments, Winooski, VT, USA).

[6] = cannabinoid concentration 25 μg/mL
[7] = cannabinoid concentration 100 μg/mL
[8] = cannabinoid concentration 200 μg/mL

Row | SMILES | Effect on release of nitric oxide NOx (in words) [1] | Effect on cell cycle transitions (in words) [2] | Increase in the number of cells in the sub-G1 phase compared to the control [2] [%] | Percentage of cells in G1 phase [2] [%] | Percentage of cells in G2 phase [2] [%] | Percentage of cells in S phase [2] [%] | Percentage of cells in sub-G1 phase [2] [%] | Effect on cell cycle transitions (in words) [3] | Increase in the number of cells in the sub-G1 phase compared to the control [3] [%] | Percentage of cells in G1 phase [3] [%] | Percentage of cells in G2 phase [3] [%] | Percentage of cells in S phase [3] [%] | Percentage of cells in sub-G1 phase [3] [%] | Reduction Value Corresponding to the Ascorbic Acid Concentration (FRAP) [4, 6] [µg/mL] | Reduction Value Corresponding to the Ascorbic Acid Concentration (FRAP) [4, 7] [µg/mL] | Reduction Value Corresponding to the Ascorbic Acid Concentration (FRAP) [4, 8] | IC50 [5] [µg/mL] | Reduction in the number of cells in the G2 phase compared to the control [2] [%] | Reduction in the number of cells in the sub-G1 phase compared to the control [3] [%]
1 | CCCCCc1cc2c3c(c1)OC(C)(C)C1CCC(C)(CC31)O2 (stereo not drawn) [CBT, cannabicitran] | statistically insignificant stimulating effect | limited the transition of cells from the S phase to the G2 phase | 17.93 | 41.86 ± 0.64 | 17.90 ± 0.81 | 18.64 ± 0.81 | 19.26 ± 0.67 | caused the accumulation of cells in the S phase | 6.71 | 28.81 ± 0.86 | 16.54 ± 0.72 | 22.23 ± 0.15 | 28.84 ± 0.66 | 0.353 ± 0.110 | 0.353 ± 0.201 | 0.504 ± 0.258 µg/mL | 53.9 (≈ 171 µM) | – | –
2 | CCCCCc1cc(O)cc(O)c1C/C=C(\C)CCC=C(C)C [abn-CBG, abnormal cannabigerol] | – | – | 80.59 | 7.97 ± 0.35 | 3.62 ± 0.54 | 5.09 ± 0.50 | 81.92 ± 1.80 | – | 53.97 | 11.63 ± 0.83 | 3.46 ± 0.79 | 8.24 ± 0.56 | 76.10 ± 2.21 | 0.857 ± 0.316 | 1.059 ± 0.328 | 1.411 µg/mL and 1.411 ± 0.465 µg/mL | 13.7 (≈ 43.2 µM) | – | –
3 | CCCCCc1cc(O)c2c(c1)OC(C)(CCC=C(C)C)C=C2 (stereo not drawn) [CBC, cannabichromene] | reduction in NOx levels with increasing cannabinoid concentration | – | 1.19 | 50.90 ± 0.73 | 26.23 ± 0.39 | 16.71 ± 0.37 | 2.52 ± 0.10 | limited the transition of cells from the S to G2 phase | – | 32.31 ± 0.62 | 22.78 ± 0.86 | 23.38 ± 0.79 | 15.17 ± 0.79 | 0.151 ± 0.001 | 0.453 ± 0.104 | 1.008 ± 0.403 µg/mL | 60.6 (≈ 193 µM) | 3.24 | 6.96
